The subject of assay [1] is T1, heme oxygenase (HO).
T1 construct: gene Hmox1; endogenous enzyme in J774A.1 cell homogenate; isoform not specified
Kind of assay: in vitro HO activity (hemin to bilirubin, spectrophotometric) in cell homogenate; Lineweaver-Burk kinetics. It is filed as biochemical.

Assay [2] deals with T1, heme oxygenase (HO). Kind of assay: in vitro HO activity (hemin to bilirubin, spectrophotometric) in cell homogenate. It is filed as biochemical.

Structures are written as SMILES.

As a reminder, the IC50 is the point on the concentration scale where inhibition reaches its midpoint. Low readings indicate greater potency, high ones weaker potency.

In the assay on heme oxygenase (HO) [1], `C=C(C)[C@@H]1CCC(C)=C[C@H]1c1c(O)cc(CCCCC)cc1O` [CBD, cannabidiol] had an IC50 of 30 µM.

Take `CCCCCc1cc(O)c2c(c1)OC(C)(C)[C@@H]1CCC(C)=C[C@@H]21` [THC, tetrahydrocannabinol]: in the assay on heme oxygenase (HO) [2], the midpoint of inhibition, the IC50, lay at 56 µM.

For the origin of these results see publication PMC7070382, “Cannabidiol Protects Dopaminergic Neurons in Mesencephalic Cultures against the Complex I Inhibitor Rotenone Via Modulation of Heme Oxygenase Activity and Bilirubin” (Antioxidants, 2020).
